In ChEMBL document CHEMBL1201862, “PubChem BioAssay data set” (2004):
The source made the active and inactive calls. Rule as the data show it, for most assays here: actives have a measured IC50 and inactives only a lower limit.

Experiments:
Assay type in all cases: functional
[1] = biological target: ALK tyrosine kinase receptor (Homo sapiens, UniProt Q9UM73);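 also: ALK tested as one member of a kinase panel screen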
[2] = biological target: Cell division cycle 7-related protein kinase (Homo sapiens, UniProt O00311);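 also: value obtained from a kinome-wide kinase panel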
[3] = biological target: T1, Sentrin-specific protease 8 (Homo sapiens, UniProt Q96LD8); assay: inhibition of human SENP8 cleavage activity – biochemical, luminescence, SAR follow-up (AID 504501)
T1 sequence (Q96LD8 whole entry): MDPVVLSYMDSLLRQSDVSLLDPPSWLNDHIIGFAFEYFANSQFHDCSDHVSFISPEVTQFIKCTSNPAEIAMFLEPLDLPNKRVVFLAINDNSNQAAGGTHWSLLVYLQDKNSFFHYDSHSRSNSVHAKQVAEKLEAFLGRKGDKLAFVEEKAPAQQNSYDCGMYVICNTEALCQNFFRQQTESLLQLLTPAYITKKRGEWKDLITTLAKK

[4] = biological target: T2, Sentrin-specific protease 7 (Homo sapiens, UniProt Q9BQF6); assay: inhibition of human SENP7 cleavage activity – biochemical, luminescence, SAR follow-up (AID 504497)
T2 sequence (Q9BQF6 whole entry): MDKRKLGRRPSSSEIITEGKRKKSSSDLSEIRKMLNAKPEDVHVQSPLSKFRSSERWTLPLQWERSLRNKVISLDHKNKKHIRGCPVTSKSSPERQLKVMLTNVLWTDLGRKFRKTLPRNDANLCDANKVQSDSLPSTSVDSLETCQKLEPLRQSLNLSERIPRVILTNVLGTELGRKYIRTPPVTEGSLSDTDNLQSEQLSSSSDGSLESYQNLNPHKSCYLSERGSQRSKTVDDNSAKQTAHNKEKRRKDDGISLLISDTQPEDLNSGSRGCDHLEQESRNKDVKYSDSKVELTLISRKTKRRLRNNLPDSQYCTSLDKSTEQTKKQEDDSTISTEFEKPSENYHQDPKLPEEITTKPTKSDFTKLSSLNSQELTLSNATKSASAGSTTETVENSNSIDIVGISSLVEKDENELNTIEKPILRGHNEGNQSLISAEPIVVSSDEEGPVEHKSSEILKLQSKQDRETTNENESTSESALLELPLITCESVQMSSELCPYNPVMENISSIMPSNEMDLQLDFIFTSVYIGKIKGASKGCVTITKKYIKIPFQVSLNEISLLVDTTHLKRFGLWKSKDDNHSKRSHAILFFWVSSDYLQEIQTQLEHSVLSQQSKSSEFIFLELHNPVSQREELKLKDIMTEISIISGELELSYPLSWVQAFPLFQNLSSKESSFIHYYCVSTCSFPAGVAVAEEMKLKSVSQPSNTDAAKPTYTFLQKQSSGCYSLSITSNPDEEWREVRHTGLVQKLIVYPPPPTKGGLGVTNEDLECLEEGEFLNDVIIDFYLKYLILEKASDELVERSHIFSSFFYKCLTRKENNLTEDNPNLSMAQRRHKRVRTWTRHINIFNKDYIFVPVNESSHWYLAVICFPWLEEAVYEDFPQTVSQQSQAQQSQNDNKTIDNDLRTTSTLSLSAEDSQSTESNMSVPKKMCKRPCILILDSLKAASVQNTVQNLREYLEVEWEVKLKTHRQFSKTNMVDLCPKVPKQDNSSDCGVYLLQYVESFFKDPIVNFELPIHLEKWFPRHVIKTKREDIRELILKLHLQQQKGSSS

Caspase-3 = biological target: T3, Caspase-3 (Homo sapiens, UniProt P42574); assay: SAR Analysis of small molecule inhibitors of Sentrin-specific proteases (SENPs) using a Caspase-3 Selectivity assay. [Related pubchem assays (depositor defined):AID2540, AID2599, AID434973, AID489001]
T3 sequence (P42574 whole entry): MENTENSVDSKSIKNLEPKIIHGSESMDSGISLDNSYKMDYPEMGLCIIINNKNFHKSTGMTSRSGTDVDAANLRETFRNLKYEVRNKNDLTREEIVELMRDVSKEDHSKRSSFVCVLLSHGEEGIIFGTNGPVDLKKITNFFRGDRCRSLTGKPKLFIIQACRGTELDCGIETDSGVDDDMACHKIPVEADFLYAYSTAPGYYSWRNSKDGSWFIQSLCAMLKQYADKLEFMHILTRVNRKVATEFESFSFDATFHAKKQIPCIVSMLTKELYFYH

[5] = biological target: T4, Sentrin-specific protease 6 (Homo sapiens, UniProt Q9GZR1); assay: SAR Analysis of small molecule inhibitors of Sentrin-specific protease 6 (SENP6) using a Luminescent assay. [Related pubchem assays (depositor defined):AID2582, AID2599]
T4 sequence (Q9GZR1 whole entry): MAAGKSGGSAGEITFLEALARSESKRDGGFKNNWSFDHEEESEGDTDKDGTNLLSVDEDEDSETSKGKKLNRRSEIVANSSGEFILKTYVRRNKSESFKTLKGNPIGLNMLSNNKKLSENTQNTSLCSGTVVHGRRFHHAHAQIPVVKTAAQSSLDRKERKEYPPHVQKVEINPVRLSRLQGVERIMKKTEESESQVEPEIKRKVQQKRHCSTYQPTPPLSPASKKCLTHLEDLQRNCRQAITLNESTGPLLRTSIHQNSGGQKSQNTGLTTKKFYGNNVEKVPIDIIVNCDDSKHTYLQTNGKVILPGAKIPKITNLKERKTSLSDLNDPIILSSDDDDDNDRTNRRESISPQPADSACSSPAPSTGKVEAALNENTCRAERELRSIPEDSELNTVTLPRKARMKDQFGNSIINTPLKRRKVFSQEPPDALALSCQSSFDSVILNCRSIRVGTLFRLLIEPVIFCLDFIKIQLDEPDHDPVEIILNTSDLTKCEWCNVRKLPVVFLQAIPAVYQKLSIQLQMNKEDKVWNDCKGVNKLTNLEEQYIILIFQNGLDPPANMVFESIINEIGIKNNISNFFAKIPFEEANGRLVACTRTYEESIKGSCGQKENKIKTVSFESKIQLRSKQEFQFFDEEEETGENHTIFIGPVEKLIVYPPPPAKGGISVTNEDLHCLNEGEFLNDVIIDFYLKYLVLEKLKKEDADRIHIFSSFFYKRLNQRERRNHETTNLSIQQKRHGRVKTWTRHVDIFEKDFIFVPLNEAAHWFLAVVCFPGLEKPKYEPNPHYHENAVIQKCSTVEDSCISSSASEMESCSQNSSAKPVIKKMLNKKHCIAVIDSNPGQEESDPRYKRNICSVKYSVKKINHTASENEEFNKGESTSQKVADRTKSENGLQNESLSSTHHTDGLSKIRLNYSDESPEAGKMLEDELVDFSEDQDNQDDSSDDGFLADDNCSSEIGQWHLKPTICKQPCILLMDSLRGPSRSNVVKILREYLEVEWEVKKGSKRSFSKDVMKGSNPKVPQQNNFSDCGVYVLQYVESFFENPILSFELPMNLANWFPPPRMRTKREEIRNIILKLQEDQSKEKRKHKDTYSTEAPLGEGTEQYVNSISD

ALK tyrosine kinase receptor, sequence (Q9UM73 whole entry): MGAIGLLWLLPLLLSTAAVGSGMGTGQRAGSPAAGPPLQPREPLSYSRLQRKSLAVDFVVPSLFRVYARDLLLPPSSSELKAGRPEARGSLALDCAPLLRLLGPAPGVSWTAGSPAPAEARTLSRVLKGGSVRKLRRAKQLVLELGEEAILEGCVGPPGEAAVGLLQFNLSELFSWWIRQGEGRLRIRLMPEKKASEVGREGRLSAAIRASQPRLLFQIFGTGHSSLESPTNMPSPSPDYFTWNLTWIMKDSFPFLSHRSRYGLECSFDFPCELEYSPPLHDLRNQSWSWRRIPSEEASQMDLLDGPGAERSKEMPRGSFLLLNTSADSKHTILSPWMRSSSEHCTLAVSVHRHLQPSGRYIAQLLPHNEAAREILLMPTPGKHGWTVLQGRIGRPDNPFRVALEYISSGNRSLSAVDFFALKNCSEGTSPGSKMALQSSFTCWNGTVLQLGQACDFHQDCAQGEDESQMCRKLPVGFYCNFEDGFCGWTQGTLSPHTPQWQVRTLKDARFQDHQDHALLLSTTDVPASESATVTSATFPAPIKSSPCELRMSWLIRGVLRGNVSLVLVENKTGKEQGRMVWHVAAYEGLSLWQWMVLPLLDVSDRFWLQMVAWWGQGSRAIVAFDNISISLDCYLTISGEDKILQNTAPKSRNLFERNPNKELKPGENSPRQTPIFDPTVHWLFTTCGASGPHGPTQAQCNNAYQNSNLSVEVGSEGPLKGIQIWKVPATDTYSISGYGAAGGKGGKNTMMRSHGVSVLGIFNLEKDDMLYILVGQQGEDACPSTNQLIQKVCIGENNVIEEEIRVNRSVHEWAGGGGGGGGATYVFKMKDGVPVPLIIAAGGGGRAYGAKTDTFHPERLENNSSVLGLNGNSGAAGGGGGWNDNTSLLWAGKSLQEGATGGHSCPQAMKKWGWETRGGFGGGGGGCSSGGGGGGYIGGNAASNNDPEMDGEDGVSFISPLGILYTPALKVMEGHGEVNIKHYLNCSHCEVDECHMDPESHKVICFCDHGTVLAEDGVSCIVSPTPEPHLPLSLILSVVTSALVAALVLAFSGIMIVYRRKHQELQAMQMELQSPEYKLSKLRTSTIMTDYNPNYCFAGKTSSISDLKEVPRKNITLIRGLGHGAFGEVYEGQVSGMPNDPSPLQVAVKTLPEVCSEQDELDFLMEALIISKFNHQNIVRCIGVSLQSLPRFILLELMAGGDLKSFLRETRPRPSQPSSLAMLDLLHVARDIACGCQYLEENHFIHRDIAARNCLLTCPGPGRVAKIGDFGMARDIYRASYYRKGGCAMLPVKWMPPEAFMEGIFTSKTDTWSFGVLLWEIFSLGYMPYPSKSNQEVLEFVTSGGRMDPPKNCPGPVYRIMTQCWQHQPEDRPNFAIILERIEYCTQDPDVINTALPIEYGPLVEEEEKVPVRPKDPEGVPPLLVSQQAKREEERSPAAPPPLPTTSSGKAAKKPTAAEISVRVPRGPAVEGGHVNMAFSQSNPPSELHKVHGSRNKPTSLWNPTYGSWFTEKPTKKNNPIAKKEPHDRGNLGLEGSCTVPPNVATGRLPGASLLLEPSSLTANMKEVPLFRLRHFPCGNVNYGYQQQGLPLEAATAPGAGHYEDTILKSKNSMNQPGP
Cell division cycle 7-related protein kinase, sequence (O00311 whole entry): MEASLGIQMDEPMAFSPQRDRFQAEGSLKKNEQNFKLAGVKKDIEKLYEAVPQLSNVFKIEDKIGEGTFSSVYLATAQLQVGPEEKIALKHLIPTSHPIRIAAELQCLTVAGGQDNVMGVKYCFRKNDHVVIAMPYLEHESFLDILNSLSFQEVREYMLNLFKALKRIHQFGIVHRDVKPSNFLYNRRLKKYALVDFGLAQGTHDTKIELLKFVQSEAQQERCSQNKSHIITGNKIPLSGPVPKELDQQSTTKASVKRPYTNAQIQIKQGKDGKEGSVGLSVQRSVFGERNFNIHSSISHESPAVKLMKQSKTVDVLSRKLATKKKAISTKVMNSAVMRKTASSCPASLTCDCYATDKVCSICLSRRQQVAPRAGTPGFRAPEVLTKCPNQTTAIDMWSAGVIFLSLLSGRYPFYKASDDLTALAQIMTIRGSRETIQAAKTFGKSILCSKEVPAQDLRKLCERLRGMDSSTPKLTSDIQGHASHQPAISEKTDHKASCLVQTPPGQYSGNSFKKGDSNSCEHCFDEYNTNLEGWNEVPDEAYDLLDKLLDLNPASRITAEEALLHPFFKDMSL

Row | Ki [1] | Ki [2] | IC50 [4] | IC50 (Caspase-3) | IC50 [5] | SMILES | IC50 [3]
1 | 316 nM (active) | > 3.98 µM (inactive) |  |  |  | CS(=O)(=O)c1ccccc1Nc1nc(Nc2ccccc2)ncc1Cl | 
2 |  |  | > 99 µM (inactive) | > 99 µM (inactive) | > 99 µM (inactive) | CC1CC(C)CN(S(=O)(=O)c2ccc(C(=O)Nc3nc4ccc(C(C)C)cc4s3)cc2)C1 (stereo unspecified) | > 99 µM (inactive)
